Assay results published in patent publication US6610681B1, “Neurotherapeutic clavulanate composition and method” (Revaax Pharmaceuticals, LLC, priority 1999, dated 2003).
“Also recorded” adds a separate entry of the source.

How the values were obtained:
[1] = test system: rats; assay: Morris water maze, spatial navigation; assay type: in vivo, rat
Text: The Morris water maze was developed to test spatial memory (Morris, 1984). The pool is divided into quadrants usually designated North, South, East and West. The water in the pool is made opaque with milk powder. Hidden just beneath the surface in one of the quadrants is a platform that serves as a escape route for rodents placed into the pool. An animal is placed some where in the pool from a variety of different start points and is timed for latency to find the platform, percent time spent in each quadrant, distance traveled and swimming speed. The animals have no visual or spatial cues in the pool and must rely on extra-maze cues, i.e., objects set up outside the pool that can be seen by the swimming animal. Through a series of trials a rat develops “place learning” or knowledge about the position of the platform based upon the extra-maze cues. The platform can be moved to a different quadrant each day combining spatial memory with working memory. This paradigm involves extinction of the prior memory and resolution of a new spatial problem.
The water maze consisted of a black plastic circular pool ca. 150 cm in diameter and 54 cm in height filled to a level of 35 cm with water made opaque with powdered milk. The pool was divided into four quadrants with a platform 10 cm in diameter submerged 2 cm below the surface in the northwest quadrant. The water was maintained at a temperature of 25° C. Around the pool were several visual cues. Above the pool was a video camera for tracking the movement of the experimental animal. The data collection was completely automated using the software developed by HVS Image (Hampton, UK). Before testing, rats were familiarized with the pool and platform placed in the northwest quadrant. Each day for 4 consecutive days, animals were placed into pool at random sites and given two min to find the platform. […] Following these familiarization trials, animals were tested for spatial navigation. The first day of testing began with the platform in the expected northwest quadrant. All behavior was videotaped for a two min observation period. After testing the animal were dried off and placed back into their home cage. On each subsequent day the platform was moved to a new quadrant and the rat started at different positions. The rat was always placed into the pool facing the sidewall. The start positions relative to the platform were different for each of the four trials; however, the platform was always in the same relative position in each quadrant. It was positioned 20 cm in from the side of the pool and in the left corner from the center facing out. The latency to find the hidden platform, path length, swim rate, and quadrant times between CLAV and vehicle treated animals were compared with a two-way, repeated measures ANOVA followed by Bonferroni post hoc tests.

[2] = test system: male golden hamsters; assay: resident/intruder paradigm of offensive aggression; assay type: in vivo, hamster
Text: Agonistic behavior can be classified as either offensive or defensive aggression (Blanchard and Blanchard, 1977; Adams, […]; Albert and Walsh, 1984). Offensive aggression is characterized by an aggressor initiating an attack on an opponent; while, defensive aggression lacks active approach. Both types of aggression have their own unique neurobehavioral systems. The stimuli that elicit offensive and defense attack are different, as are the sequences of behaviors that accompany each agonistic response. […] Offensive aggression is easily studied using male golden hamsters tested in a resident/intruder paradigm, an established model of offensive aggression (Ferris and Potegal 1988) in the context of defending the home burrow. Placing an unfamiliar male hamster into the home cage of another male hamster elicits a well-defined sequence of agonistic behaviors from the resident that includes offensive aggression.
Hamsters are nocturnal and as such all behavioral tests were performed during the first four hrs of the dark phase under dim red illumination. The resident was scored for offensive aggression, e.g., latency to bite the intruder, the total number of bites, total contact time with the intruder and flank marking over a 10 min test period (Ferris and Potegal, 1988). Flank marking is a form of olfactory communication in which a hamsters arches its back and rubs pheromone producing flank glands against objects in the environment (Johnston, 1986).
Five male golden hamsters (130-140 g) were given IP injections of CLAV (200 μg/kg) and saline vehicle in a volume of ca. 0.2 ml. […] Vehicle and CLAV treatments were counter balanced and randomized so all five animals received each treatment separated by at least 48 hrs. Animals were tested 90 min after treatment over a 10 min observation period. Latencies and contact time were analyzed with a two-way ANOVA. Non-parametric data, i.e., number of bites and flank marks were analyzed by Wilcoxon matched-pairs signed-ranks test.
The animals tested in this study were those used in Section IX. After the seed finding assay, beta-NAAG (n=6) and saline vehicle (n=6) treated animals remained in their home cage and were presented with a smaller, male intruder. The resident was scored for latency to bite, bites, contact time and flank marking over a 10 min observation period. Latency to bite and contact time between treatments were compared with Student t-tests. Non-parametric measures of bites and flank marks for beta-NAAG vs vehicle were compared with Mann-Whitney.

[3] = test system: neurogenic NAALADase; assay: animal tests of neuroactivity, effective dose; assay type: in vivo, hamsters and other test species

Compound | spatial learning ([1]; i.p. at 50 micrograms/kg, rats) | aggression ([2]; i.p. at 50 micrograms/kg, hamster) | dose exhibiting significant dose responsive neuroactivity ([3]; administered parenterally) | threshold effective dose ([3]; administered parenterally) | effective minimum neurogenic protease inhibiting concentration in the brain ([3]; based on animal test data and known brain distribution) | minimum effective dose ([3]; parenterally, hamsters and other test species) | path length to find the platform ([1]; 1.0 μg/kg, Day 1, vs vehicle) | percentage of time spent in each quadrant vs vehicle ([1]; 1.0 μg/kg, any quadrant on any day) | latency to find the platform, main effect ([1]; 1.0 μg/kg, one hr before testing, 4 days) | latency to find the platform on Days 1 and 4 ([1]; 1.0 μg/kg, trend towards significance) | learning and memory (summary) ([1]; spatial and cue navigation) | antiaggressive properties (summary) ([2]; 200 μg/kg) | contact time with the intruder ([2]; 200 μg/kg IP, 90 min) | flank marking behavior ([2]; 200 μg/kg IP, 90 min) | latency to bite the intruder ([2]; 200 μg/kg IP, 90 min, trend toward significance) | median number of bites ([2]; 200 μg/kg IP, 90 min, vehicle thirteen) | aggressive behavior, pilot studies ([2]; IP at 1.0 μg/kg) | dose effective to inhibit neurogenic NAALADase ([3]; i.p.) | dose showing activity similar to moxalactam (aggression, spatial learning, anxiolytic) ([3]; i.p.) | dose exhibiting dose responsive neuroactivity ([3]; levels as low as) [µg/kg]
CO[C@@]1(NC(=O)C(C(=O)O)c2ccc(O)cc2)C(=O)N2C(C(=O)O)=C(CSc3nnnn3C)CO[C@@H]21 (stereo partly drawn) [Moxalactam, 7-β-[2-carboxy-2-(4-hydroxyphenyl)acetamido]-7α-methoxy-3-[[(1-methyl-1H-tetrazol-5-yl)thio]methyl]-1-oxa-1-dethia-3-cephem-4-carboxylic acid] | enhances spatial learning in rats | inhibits aggression in hamster | about 50 μg/kg of body weight | about 50 βg/kg of body weight | about 30 nM | about 50 micrograms per kg of body weight |  |  |  |  |  |  |  |  |  |  |  |  |  | 
O=C(O)[C@H]1/C(=C/CO)O[C@@H]2CC(=O)N21 [CLAV, clavulanic acid] |  |  |  |  |  |  | traveled a much shorter distance | no significant difference between treatments | no main effect for drug treatment | shorter latencies | do not show any loss in learning and memory | modest antiaggressive or serenic-like properties | no significant main effect for drug treatment | unaffected; also recorded: no significant effect of drug treatment | no significant main effect for drug treatment | six | no effect on aggressive behavior | less than 1 microgram per kilogram of body weight | less than 1 microgram/kg | 0.01
